These results are taken from patent US20240228458A1, “PYRIMIDINE DERIVATIVE HAVING PROTEIN KINASE INHIBITORY ACTIVITY, AND THERAPEUTIC PHARMACEUTICAL COMPOSITION COMPRISING SAME” (THERAPEX CO., LTD., priority 2021, published 2024).

Assay type in all cases: cell-based
Test [1] has as its system Ba/F3 cells expressing EGFR-wt. In words: Growth inhibition (GI50) of Ba/F3 cells expressing EGFR-wt, Celltiter glo. As to conditions: Mus musculus, BaF3, 72 h. On the procedure:
(§1) In this experimental example, a determination was made as to whether the compounds prepared in Examples 1-283 have the ability to inhibit the growth of Ba/F3 cells expressing EGFR-wt, del19/T790M/C797S (EGFR-DTC), L858R/T790M/C797S (EGFR-LTC), del19/T790M (EGFR-DT), and L858R/T790M (EGFR-LT) variants.
(§2) The parental Ba/F3 cell line is a population of cells that are not introduced with EGFR variants. Specifically, 100 μl of a cell line expressing each variant was plated in a 96-well plate at a density of 100,000 cells/ml. 10-point, 4-fold serial dilutions of each compound were prepared, starting at 2 mM. After 4 h, 0.5 μl of the compound (0.5% DMSO) was added, followed by incubation at 37° C. and 5% CO2 for 72 h. After incubation, the number of viable cells was measured using a Celltiter glo assay kit (Promega) and the GI50 of the compound was determined. The term “GI50” refers to the molar concentration (μM) of the compound required for 50% growth inhibition of cells.
(In general: In ATP-based viability assays light output follows the ATP content of the culture.)

For test [2], the system named is Ba/F3 cells expressing del19/T790M/C797S (EGFR-DTC). Description: Growth inhibition (GI50) of Ba/F3 cells expressing del19/T790M/C797S (EGFR-DTC), Celltiter glo. As to conditions: Mus musculus, BaF3, 72 h. On the procedure:
as §1, §2

The test system of test [3] is Ba/F3 cells expressing L858R/T790M/C797S (EGFR-LTC). In words: Growth inhibition (GI50) of Ba/F3 cells expressing L858R/T790M/C797S (EGFR-LTC), Celltiter glo. As to conditions: Mus musculus, BaF3, 72 h. On the procedure: as §1, §2
Test [4] has as its system parental Ba/F3 cell line. Description: Growth inhibition (GI50) of the parental Ba/F3 cell line (not introduced with EGFR variants), Celltiter glo. Conditions: Mus musculus, BaF3, 72 h, parental Ba/F3 cells. On the procedure:
as §2

Regarding `Cc1cc(Nc2ncc(Br)c(Nc3cc(Cl)ccc3NS(C)(=O)=O)n2)c(Cl)cc1N1CCC(N2CCN(C)CC2)CC1` [Example 93, N-(2-((5-bromo-2-((2-chloro-5-methyl-4-(4-(4-methylpiperazin-1-yl)piperidin-1-yl)phenyl)amino)pyrimidin-4-yl)amino)-4-chlorophenyl)methanesulfonamide], the GI50 (commonly the concentration at which growth is held to half of that of the control) in test [1] is 0.5 to 2 µM; in test [2], 0.001 to 0.025 µM; in test [3] it was 0.025 to 0.1 µM; in test [4] it was 2 to 10 µM.

Consider `COc1cc(N2CCC(N3CCN(C)CC3)CC2)c(C)cc1Nc1ncc(Cl)c(Nc2ccccc2NC(C)=O)n1` [Example 68, N-(2-((5-chloro-2-((2-methoxy-5-methyl-4-(4-(4-methylpiperazin-1-yl)piperidin-1-yl)phenyl)amino)pyrimidin-4-yl)amino)phenyl)acetamide], for which the GI50 in test [1] was in the range of 2 to 10 µM; in test [2], 0.5 to 2 µM; in test [3] it was 2 to 10 µM; in test [4], 2 to 10 µM.

For the compound `COc1nc(N2CCC(N3CCN(C)CC3)CC2)ccc1Nc1ncc(Cl)c(Nc2cc(Cl)c(Cl)cc2NC(C)=O)n1` [Example 72], the GI50 in test [1] fell in the range of 0.5 to 2 µM; in test [2], 0.5 to 2 µM; in test [3] it was 0.5 to 2 µM; in test [4] it was 2 to 10 µM.

With `CN1CCN(C2CCN(c3nc(Cl)c(Nc4ncc(Br)c(Nc5ccc(F)cc5NS(C)(=O)=O)n4)cc3C(F)(F)F)CC2)CC1` [Example 34, N-(2-((5-bromo-2-((2-chloro-6-(4-(4-methylpiperazin-1-yl)piperidin-1-yl)-5-(trifluoromethyl)pyridin-3-yl)amino)pyrimidin-4-yl)amino)-5-fluorophenyl)methanesulfonamide], the concentration for 50% growth inhibition (GI50) was 2 to 10 µM in test [1], 0.5 to 2 µM in test [2], 0.1 to 0.5 µM in test [3] and 2 to 10 µM in test [4].

On to `COc1nc(N2CCC(N3CCN(C)CC3)CC2)ccc1Nc1ncc(Cl)c(Nc2ccccc2CS(C)(=O)=O)n1` [Example 64], for which the 50% growth inhibitory concentration (GI50) in test [1] lay within 2 to 10 µM; in test [2] it was 0.5 to 2 µM; in test [3] it was 0.5 to 2 µM; in test [4], 2 to 10 µM.

As for `COc1cc(N2CCC(N3CCN(C)CC3)CC2)c(Cl)cc1Nc1ncc(Br)c(Nc2cc(C)ccc2NS(C)(=O)=O)n1` [Example 107, N-(2-((5-bromo-2-((5-chloro-2-methoxy-4-(4-(4-methylpiperazin-1-yl)piperidin-1-yl)phenyl)amino)pyrimidin-4-yl)amino)-4-methylphenyl)methanesulfonamide], the GI50 lay in the range of 0.5 to 2 µM in test [1], 0.025 to 0.1 µM in test [2], 0.1 to 0.5 µM in test [3] and 0.5 to 2 µM in test [4].

Turning to `COc1nc(C2CCCN(C)CC2)ccc1Nc1ncc(Br)c(Nc2ccc(F)cc2NS(C)(=O)=O)n1` (centres unmarked) [Example 145, N-(2-((5-bromo-2-((2-methoxy-6-(1-methylazepan-4-yl)pyridin-3-yl)amino)pyrimidin-4-yl)amino)-5-fluorophenyl)methanesulfonamide], the GI50 is 2 to 10 µM in test [1], 0.1 to 0.5 µM in test [2], 0.1 to 0.5 µM in test [3] and 2 to 10 µM in test [4].

With `COc1nc(N2CCN(C3CC3)CC2)ccc1Nc1ncc(Br)c(Nc2ccc(F)cc2NS(C)(=O)=O)n1` [Example 30, N-(2-((5-bromo-2-((6-(4-cyclopropylpiperazin-1-yl)-2-methoxypyridin-3-yl)amino)pyrimidin-4-yl)amino)-5-fluorophenyl)methanesulfonamide], the concentration for 50% growth inhibition (GI50) is more than 10 µM in test [1], 2 to 10 µM in test [2], 2 to 10 µM in test [3] and more than 10 µM in test [4].

`COc1nc(N2CCC(N3CCN(C)CC3)CC2)c(C)cc1Nc1ncc(Cl)c(N(C)c2ccccc2NS(C)(=O)=O)n1` [Example 121, N-(2-((5-chloro-2-((2-methoxy-5-methyl-6-(4-(4-methylpiperazin-1-yl)piperidin-1-yl)pyridin-3-yl)amino)pyrimidin-4-yl)(methyl)amino)phenyl)methanesulfonamide]: the concentration for 50% growth inhibition (GI50) in test [1] is 2 to 10 µM; in test [2], 2 to 10 µM; in test [3] it was 2 to 10 µM; in test [4], more than 10 µM.

Take `CN1CCN(C2CCN(c3ccc(Nc4ncc(Cl)c(N(c5ccc6scnc6c5NS(C)(=O)=O)S(C)(=O)=O)n4)cc3F)CC2)CC1` [Example 112, N-(5-chloro-2-((3-fluoro-4-(4-(4-methylpiperazin-1-yl)piperidin-1-yl)phenyl)amino)pyrimidin-4-yl)-N-(4-(methylsulfonamido)benzo[d]thiazol-5-yl)methanesulfonamide]: the GI50 in test [1] fell in the range of 0.1 to 0.5 µM; in test [2], 0.025 to 0.1 µM; in test [3], 0.025 to 0.1 µM; in test [4], 0.1 to 0.5 µM.

As for `COc1cc(N2CCC(N3CCN(C)CC3)CC2)c(Cl)cc1Nc1ncc(Cl)c(Nc2cc(Cl)c(Cl)cc2NS(C)(=O)=O)n1` [Example 103], the 50% growth inhibitory concentration (GI50) in test [1] lay in the range of 0.5 to 2 µM; in test [2] it was 0.1 to 0.5 µM; in test [3] it was 0.025 to 0.1 µM; in test [4], 2 to 10 µM.

Turning to `COc1nc(N2CCC(N3CCN(C)CC3)CC2)ccc1Nc1ncc(Br)c(Nc2ccc(F)cc2NS(C)(=O)=O)n1` [Example 28, N-(2-((5-bromo-2-((2-methoxy-6-(4-(4-methylpiperazin-1-yl)piperidin-1-yl)pyridin-3-yl)amino)pyrimidin-4-yl)amino)-5-fluorophenyl)methanesulfonamide], the 50% growth inhibitory concentration (GI50) in test [1] is 2 to 10 µM; in test [2], 0.5 to 2 µM; in test [3], 0.5 to 2 µM; in test [4] it was 2 to 10 µM.

In the case of `COc1cc(N2CCC(N(C)CCN(C)C)CC2)c(C)cc1Nc1ncc(Cl)c(Nc2cc(Cl)c(Cl)cc2NS(C)(=O)=O)n1` [Example 104, N-(4,5-dichloro-2-((5-chloro-2-((4-(4-((2-(dimethylamino)ethyl)(methyl)amino)piperidin-1-yl)-2-methoxy-5-methylphenyl)amino)pyrimidin-4-yl)amino)phenyl)methanesulfonamide], the concentration for 50% growth inhibition (GI50) in test [1], in test [2], in test [3] and in test [4] was 0.5 to 2 µM in each case.

On to `COc1nc(N2CCNCC2)ccc1Nc1ncc(Cl)c(Nc2ccc3nccnc3c2P(C)(C)=O)n1` [Example 128, (6-((5-chloro-2-((2-methoxy-6-(piperazin-1-yl)pyridin-3-yl)amino)pyrimidin-4-yl)amino)quinoxalin-5-yl)dimethylphosphine oxide], for which the GI50 in test [1] fell in the range of 2 to 10 µM; in test [2], 0.5 to 2 µM; in test [3], 0.5 to 2 µM; in test [4], 2 to 10 µM.

Turning to `COc1cc(N2CCC(N3CCN(C)CC3)CC2)c(C)cc1Nc1ncc(Br)c(Nc2cc(C)ccc2NS(C)(=O)=O)n1` [Example 106, N-(2-((5-bromo-2-((2-methoxy-5-methyl-4-(4-(4-methylpiperazin-1-yl)piperidin-1-yl)phenyl)amino)pyrimidin-4-yl)amino)-4-methylphenyl)methanesulfonamide], the GI50 in test [1] lay in the range of 0.5 to 2 µM; in test [2], 0.001 to 0.025 µM; in test [3] it was 0.025 to 0.1 µM; in test [4] it was 0.5 to 2 µM.

Turning to `COc1nc(N2C[C@@H](C)N(C)[C@@H](C)C2)ccc1Nc1ncc(Cl)c(Nc2ccc3nccnc3c2NS(C)(=O)=O)n1` [Example 135, N-(6-((5-chloro-2-((2-methoxy-6-((3S,5R)-3,4,5-trimethylpiperazin-1-yl)pyridin-3-yl)amino)pyrimidin-4-yl)amino)quinoxalin-5-yl)methanesulfonamide], the GI50 in test [1] lay in the range of 0.5 to 2 µM; in test [2] it was 0.1 to 0.5 µM; in test [3] it was 0.1 to 0.5 µM; in test [4] it was 0.5 to 2 µM.

For `COc1nc(N2CCC(N3CCN(C)CC3)CC2)ccc1Nc1ncc(Cl)c(N(C)c2cc(Cl)c(Cl)cc2N(C)C(C)=O)n1` [Example 79, N-(4,5-dichloro-2-((5-chloro-2-((2-methoxy-6-(4-(4-methylpiperazin-1-yl)piperidin-1-yl)pyridin-3-yl)amino)pyrimidin-4-yl)(methyl)amino)phenyl)-N-methylacetamide], the 50% growth inhibitory concentration (GI50) is 2 to 10 µM in test [1], 0.5 to 2 µM in test [2], 0.5 to 2 µM in test [3] and 0.5 to 2 µM in test [4].

As to `COc1nc(N2CCOCC2)ccc1Nc1ncc(Br)c(Nc2ccc(F)cc2NS(C)(=O)=O)n1` [Example 29, N-(2-((5-bromo-2-((2-methoxy-6-morpholinopyridin-3-yl)amino)pyrimidin-4-yl)amino)-5-fluorophenyl)methanesulfonamide], the GI50 in test [1], in test [2], in test [3] and in test [4] was more than 10 µM each time.

Consider `CC(=O)Nc1cc(Cl)c(Cl)cc1Nc1nc(Nc2cnc(N3CCC(N4CCN(C)CC4)CC3)c(F)c2)ncc1Cl` [Example 73, N-(4,5-dichloro-2-((5-chloro-2-((5-fluoro-6-(4-(4-methylpiperazin-1-yl)piperidin-1-yl)pyridin-3-yl)amino)pyrimidin-4-yl)amino)phenyl)acetamide], for which the GI50 in test [1] lay in the range of 0.5 to 2 µM; in test [2], 0.5 to 2 µM; in test [3] it was 0.5 to 2 µM; in test [4], 2 to 10 µM.

Take `COc1nc(N2CCN(C3CCN(C)CC3)CC2)c(C(F)(F)F)cc1Nc1ncc(Br)c(Nc2ccc(F)cc2NS(C)(=O)=O)n1` [Example 37]: the GI50 in test [1], in test [2], in test [3] and in test [4] was more than 10 µM each time.
